Test systems include M19-MEL melanoma; SF-539 CNS; OVCAR-8 ovarian; NCI-H522 lung; SK-MEL-5 melanoma; SNB-75 CNS; LXFL 529 NSCLC; OVCAR-4 ovarian; CAKI-1 renal; XF 498 CNS; T-47D breast.
Common to all, as to assay: inhibition of tumour cell growth, NCI panel, 48 h

The structures appear in SMILES notation. “And” between values parts separate entries of the source, which are not always exact repeats. Identical values can stand only once.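 96-well plates; 48 h exposure; 5 concentrations. Endpoints by linear interpolation between flanking doses. Not reached: highest tested concentration assigned. GI50 is the concentration that inhibits growth by half. TGI is the concentration that stops growth completely.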

For the molecule `COc1ccc(NC(=O)CC2SC(=Nc3ccc(Cl)cc3C)NC2=O)c([N+](=O)[O-])c1` (centres undefined), the TGI with M19-MEL melanoma, with SF-539 CNS, in the assay with OVCAR-8 ovarian, in the assay with NCI-H522 lung, in the assay with SK-MEL-5 melanoma and in the assay with SNB-75 CNS was over 100 µM throughout. Also, the TGI with LXFL 529 NSCLC, in the assay on OVCAR-4 ovarian and in the assay on CAKI-1 renal was over 100 µM each time.
Consider `O=S1c2ccccc2N=C(c2cccs2)CC1c1ccccc1O` (centres undefined), for which the TGI in the assay with M19-MEL melanoma, in the assay with SF-539 CNS, in the assay with XF 498 CNS, with OVCAR-8 ovarian, in the assay on NCI-H522 lung and in the assay on SK-MEL-5 melanoma was over 100 µM in each case. Besides, the TGI in the assay on SNB-75 CNS, in the assay on LXFL 529 NSCLC, in the assay on OVCAR-4 ovarian and in the assay with CAKI-1 renal was over 100 µM each time.
Consider `CC1O[C@@H]2CCCCC(=O)[C@]2(C)[C@H]1C` (some centres undefined), for which the TGI in the assay with M19-MEL melanoma, in the assay with XF 498 CNS, in the assay on OVCAR-8 ovarian, in the assay on SK-MEL-5 melanoma, in the assay with SNB-75 CNS and with LXFL 529 NSCLC was over 100 µM each time. Moreover, the TGI with OVCAR-4 ovarian and in the assay on CAKI-1 renal was over 100 µM in each case.
Turning to `Cc1ccccc1C1SCc2nc3ccccc3n21` (centres undefined), the TGI with M19-MEL melanoma, in the assay with SF-539 CNS, with OVCAR-8 ovarian, with NCI-H522 lung, in the assay on SK-MEL-5 melanoma and in the assay with SNB-75 CNS was over 100 µM each time. Further, the TGI in the assay on CAKI-1 renal was over 100 µM.
For the molecule `O=C(NNC(=O)/C(=C/c1cccc([N+](=O)[O-])c1)NC(=O)c1ccccc1)Nc1ccc(Cl)cc1`, the TGI with M19-MEL melanoma was 29.1 µM; in the assay on SF-539 CNS, 35.1 µM; in the assay with XF 498 CNS, 26.6 µM; in the assay with OVCAR-8 ovarian it was 62.1 µM; with NCI-H522 lung it was 25.7 µM; in the assay with SK-MEL-5 melanoma, 25.7 µM. The TGI in the assay on SNB-75 CNS came to 36 µM; in the assay on LXFL 529 NSCLC, 23.5 µM; in the assay with OVCAR-4 ovarian it was 26.9 µM; with CAKI-1 renal it was 40.2 µM.
For the molecule `CC(C)(C)c1cc([Si](C)(C)C)c(C#N)c([Si](C)(C)C)c1`, the TGI was over 100 µM with M19-MEL melanoma; over 100 µM in the assay with SF-539 CNS; 67 µM with XF 498 CNS; over 100 µM in the assay on OVCAR-8 ovarian; over 100 µM with NCI-H522 lung; over 100 µM in the assay with SNB-75 CNS. For the same molecule, the TGI in the assay with LXFL 529 NSCLC, with OVCAR-4 ovarian and in the assay on CAKI-1 renal was over 100 µM throughout.
Consider `O=c1[nH]c(C2CCCCC2)nc2ccc(Cl)cc12`, for which the TGI in the assay with M19-MEL melanoma, with SF-539 CNS, in the assay on OVCAR-8 ovarian, with SK-MEL-5 melanoma, with SNB-75 CNS and in the assay with LXFL 529 NSCLC was over 100 µM throughout.
Take `O=Cc1cc2sc(C=O)cc2s1`: the TGI with M19-MEL melanoma, in the assay on SF-539 CNS, with XF 498 CNS, in the assay on OVCAR-8 ovarian, with NCI-H522 lung and in the assay with SK-MEL-5 melanoma was over 100 µM throughout. Besides, the TGI in the assay with SNB-75 CNS, in the assay on LXFL 529 NSCLC, with OVCAR-4 ovarian and in the assay with CAKI-1 renal was over 100 µM in each case.
Consider `O=C1/C(=C/c2ccc(C(=O)O)cc2)CNC/C1=C\c1ccc(C(=O)O)cc1`, for which the TGI in the assay with M19-MEL melanoma, with SF-539 CNS, with XF 498 CNS, with OVCAR-8 ovarian, with SK-MEL-5 melanoma and with SNB-75 CNS was over 100 µM in each case. Moreover, the TGI in the assay on LXFL 529 NSCLC and in the assay on OVCAR-4 ovarian was over 100 µM in each case.
Consider `CCCCCCCC(=O)[O-].N.N.N.N.N.[Co+3].[O-][Cl+3]([O-])([O-])[O-]`, for which the GI50 in the assay with SF-539 CNS, in the assay on OVCAR-8 ovarian, in the assay on NCI-H522 lung, in the assay on SK-MEL-5 melanoma, with SNB-75 CNS and in the assay with LXFL 529 NSCLC was over 100 µM in each case. Besides, the GI50 with OVCAR-4 ovarian is over 100 µM. Further, the TGI with SF-539 CNS, in the assay with OVCAR-8 ovarian, in the assay on NCI-H522 lung, in the assay with SK-MEL-5 melanoma, in the assay on SNB-75 CNS and with LXFL 529 NSCLC was over 100 µM throughout. This molecule yielded a TGI with OVCAR-4 ovarian of over 100 µM.
Take `COc1ccc(C2[C@@H](Cl)C(=O)N2c2ccc(OC)cc2)cc1` (some centres undefined): the TGI with M19-MEL melanoma is over 100 µM; in the assay with SF-539 CNS it was 49.8 µM; in the assay on OVCAR-8 ovarian, over 100 µM; in the assay with NCI-H522 lung, over 100 µM; in the assay on SK-MEL-5 melanoma, over 100 µM; in the assay with SNB-75 CNS, 64.1 µM. Moreover, the TGI in the assay on LXFL 529 NSCLC and in the assay on CAKI-1 renal was over 100 µM throughout.
On to `CC1=NN(c2ccccc2)C(=O)C1N=Nc1ccc(Br)cc1C` (centres undefined), for which the TGI in the assay on M19-MEL melanoma was over 100 µM; in the assay with SF-539 CNS it was over 100 µM; in the assay on OVCAR-8 ovarian, over 100 µM; in the assay with SK-MEL-5 melanoma, over 100 µM; in the assay with SNB-75 CNS, 48.3 µM; with LXFL 529 NSCLC it was over 100 µM. Further, the TGI with OVCAR-4 ovarian and in the assay with CAKI-1 renal was over 100 µM in each case.
On to `O=S(=O)(O)c1ccc([Se][Se]c2ccc(S(=O)(=O)O)cc2)cc1`, for which the TGI with M19-MEL melanoma, with SF-539 CNS, in the assay on XF 498 CNS, in the assay with OVCAR-8 ovarian, in the assay on NCI-H522 lung and in the assay with SK-MEL-5 melanoma was over 100 µM throughout. Moreover, the TGI in the assay on SNB-75 CNS, in the assay with LXFL 529 NSCLC, with OVCAR-4 ovarian and in the assay on CAKI-1 renal was over 100 µM each time.
`OC(CBr)C(O)C(O)C(O)CBr` (centres undefined): the TGI in the assay on M19-MEL melanoma, with SF-539 CNS, in the assay with XF 498 CNS, in the assay with OVCAR-8 ovarian, in the assay on T-47D breast and in the assay with NCI-H522 lung was over 100 µM in each case. Further, the TGI with SK-MEL-5 melanoma was over 100 µM; with SNB-75 CNS, 68.4 µM and > 100 µM; with OVCAR-4 ovarian, over 100 µM; with CAKI-1 renal it was over 100 µM. In addition, the GI50 was over 100 µM with SK-MEL-5 melanoma; 13 µM and 51 µM with SNB-75 CNS; 9.66 µM and 44.7 µM in the assay on CAKI-1 renal.
As to `Clc1cc2ns[s+]c2cc1Cl`, the TGI with M19-MEL melanoma was over 100 µM; in the assay with SF-539 CNS, over 100 µM; in the assay on XF 498 CNS it was over 100 µM; in the assay on OVCAR-8 ovarian, over 100 µM; in the assay with NCI-H522 lung, over 80.5 µM; in the assay with SK-MEL-5 melanoma, over 52 µM. Also, the TGI in the assay with SNB-75 CNS is over 64.2 µM; in the assay with LXFL 529 NSCLC, over 100 µM; in the assay on OVCAR-4 ovarian, over 100 µM; in the assay on CAKI-1 renal, over 100 µM.
On to `Oc1ccccc1-c1cnnc(-c2ccccc2O)c1`, for which the TGI was 61.8 µM in the assay with M19-MEL melanoma; 65.1 µM in the assay on SF-539 CNS; 32.3 µM with XF 498 CNS; 57.4 µM with OVCAR-8 ovarian; 41.3 µM in the assay on NCI-H522 lung; 51.6 µM with SNB-75 CNS. Also, the TGI with LXFL 529 NSCLC was 58.2 µM; in the assay with OVCAR-4 ovarian, over 100 µM; in the assay on CAKI-1 renal, 65.2 µM.
As to `NC1=NN(c2ccccc2)C(=O)C1/C(=N\NC(=O)c1cc2ccccc2cc1O)C(=O)Nc1ccc(Cl)c(Cl)c1` (centres undefined), the TGI in the assay with SF-539 CNS was over 100 µM; in the assay on XF 498 CNS, 71.6 µM; in the assay on OVCAR-8 ovarian, over 100 µM; in the assay with NCI-H522 lung it was 37.2 µM; in the assay on SK-MEL-5 melanoma, 79.4 µM; with SNB-75 CNS it was over 100 µM. Moreover, the TGI in the assay with LXFL 529 NSCLC, with OVCAR-4 ovarian and in the assay on CAKI-1 renal was over 100 µM throughout.
On to `Cc1cc(NCCCCCCCCNc2cc(C)nc3cc(N(C)C)ccc23)c2ccc(N(C)C)cc2n1`, for which the TGI stood at 10.8 µM in the assay with M19-MEL melanoma; 7.3 µM in the assay with XF 498 CNS; 38.2 µM in the assay with OVCAR-8 ovarian; 12.9 µM with NCI-H522 lung; 16 µM in the assay on LXFL 529 NSCLC; 21.6 µM in the assay on OVCAR-4 ovarian. In the assay with CAKI-1 renal, this molecule returned a TGI of 72.1 µM.
Turning to `CCCCCCCCCCCCCC(=O)OCC1OC(=O)C(O)C1O` (centres undefined), the TGI in the assay on M19-MEL melanoma, in the assay on SF-539 CNS, in the assay with XF 498 CNS, with OVCAR-8 ovarian, with NCI-H522 lung and in the assay on SK-MEL-5 melanoma was over 100 µM each time. Besides, the TGI in the assay on SNB-75 CNS, in the assay with LXFL 529 NSCLC, with OVCAR-4 ovarian and in the assay on CAKI-1 renal was over 100 µM throughout.
With `CC(C)Cc1cc(-c2cccn2C)c(C#N)c(=O)[nH]1`, the GI50 in the assay on SF-539 CNS was over 100 µM; in the assay with OVCAR-8 ovarian it was over 100 µM; in the assay on T-47D breast, over 100 µM; in the assay on NCI-H522 lung, over 100 µM; in the assay on SK-MEL-5 melanoma, over 100 µM; with SNB-75 CNS, 40.1 µM. The GI50 is 69.4 µM in the assay on OVCAR-4 ovarian and over 100 µM with CAKI-1 renal. Further, the TGI in the assay with SF-539 CNS, with OVCAR-8 ovarian, in the assay on T-47D breast, in the assay on NCI-H522 lung, with SK-MEL-5 melanoma and with SNB-75 CNS was over 100 µM each time. Besides, the TGI in the assay with OVCAR-4 ovarian and in the assay on CAKI-1 renal was over 100 µM each time.
For the molecule `O=C(Nc1ccn(C2CCC(COC(c3ccccc3)(c3ccccc3)c3ccccc3)O2)c(=O)n1)c1ccccc1` (centres undefined), the TGI with SF-539 CNS is 7 µM; in the assay with OVCAR-8 ovarian, 10.1 µM; in the assay with T-47D breast, 27.9 µM; in the assay on NCI-H522 lung it was 19.2 µM; in the assay with SK-MEL-5 melanoma it was 6.41 µM; in the assay on SNB-75 CNS, 8.35 µM. For the same molecule, the TGI came to 7.71 µM in the assay on OVCAR-4 ovarian and 13.4 µM in the assay with CAKI-1 renal.

Source of the values: PubChem BioAssay (NCI).
